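Interpolation was linear, between the two tested concentrations surrounding the appropriate level; five concentrations were tested over 48 hours in 96-well plates. Here, GI50 denotes the concentration required for 50% inhibition of growth.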 Active and inactive are the calls of the source. Rule as the data show it: active = GI50 up to about 1.1 µM and inactive = higher.
Experiments:
Assay in all cases: inhibition of tumour cell growth, NCI panel, 48 h
A549 = system: A549
CCRF-CEM = system: CCRF-CEM
DLD-1 = system: DLD-1
HCT-15 = system: HCT-15
HL-60 = system: HL-60
HOP-18 = system: HOP-18
HOP-62 = system: HOP-62
KM-20L2 = system: KM-20L2
LOX IMVI = system: LOX IMVI
NCI-H23 = system: NCI-H23
NCI-H460 = system: NCI-H460
OVCAR-4 = system: OVCAR-4
SF-539 = system: SF-539
SK-MEL-28 = system: SK-MEL-28
SK-MEL-5 = system: SK-MEL-5
SNB-75 = system: SNB-75
XF498 = system: XF498
DU-145 = system: DU-145
MDA-N = system: MDA-N
T47D = system: T47D

CCOC(=O)Nc1ccc(S(=O)(=O)OC)cc1.CCOC(=O)Nc1ccc(S(=O)(=O)OC)cc1.Nc1ncnc2c1ncn2C1OC(CO)C(O)C1O (centres undefined)
GI50 (A549): 34.3 µM (inactive)
GI50 (CCRF-CEM): 20.6 µM (inactive)
GI50 (DLD-1): 33.1 µM (inactive)
GI50 (HCT-15): 34.2 µM
GI50 (HL-60): 21.8 µM (inactive)
GI50 (HOP-18): > 100 µM (inactive)
GI50 (HOP-62): > 100 µM (inactive)
GI50 (KM-20L2): > 100 µM (inactive)
GI50 (LOX IMVI): 17.8 µM (inactive)
GI50 (NCI-H23): > 100 µM (inactive)
GI50 (NCI-H460): > 100 µM (inactive)
GI50 (OVCAR-4): 35.3 µM (inactive)
GI50 (SF-539): > 100 µM (inactive)
GI50 (SK-MEL-28): > 100 µM (inactive)
GI50 (SK-MEL-5): > 100 µM (inactive)
GI50 (SNB-75): > 100 µM (inactive)
GI50 (XF498): 92.3 µM (inactive)

COc1cc2c(cc1OC)-c1cc(OC)c(OC)cc1[C@H]1CN3CCC[C@@]3(O)C=C21
GI50 (A549): < 0.0001 µM (active)
GI50 (CCRF-CEM): < 0.0001 µM (active)
GI50 (DLD-1): < 0.0001 µM (active)
GI50 (HCT-15): < 0.0001 µM
GI50 (HL-60): < 0.0001 µM (active)
GI50 (HOP-18): < 0.0001 µM (active)
GI50 (HOP-62): < 0.0001 µM (active)
GI50 (KM-20L2): < 0.0001 µM (active)
GI50 (LOX IMVI): < 0.0001 µM (active)
GI50 (NCI-H23): < 0.0001 µM (active)
GI50 (NCI-H460): < 0.0001 µM (active)
GI50 (OVCAR-4): < 0.0001 µM (active)
GI50 (SF-539): < 0.0001 µM (active)
GI50 (SK-MEL-28): < 0.0001 µM (active)
GI50 (SK-MEL-5): < 0.0001 µM (active)
GI50 (SNB-75): < 0.0001 µM (active)
GI50 (XF498): < 0.0001 µM (active)

CC[C@@]1(O)CC(OC2CC(N3CCOCC3)C(O)C(C)O2)c2c(O)c3c(c(O)c2[C@H]1O)C(=O)c1cccc(O)c1C3=O (some centres undefined)
GI50 (A549): 0.0267 µM (active)
GI50 (CCRF-CEM): 0.0379 µM (active)
GI50 (DLD-1): 0.143 µM (active)
GI50 (DU-145): 0.084 µM (active)
GI50 (HCT-15): 0.0573 µM
GI50 (HL-60): 0.0311 µM (active)
GI50 (HOP-18): 0.237 µM (active)
GI50 (HOP-62): 0.0679 µM (active)
GI50 (KM-20L2): 0.191 µM (active)
GI50 (LOX IMVI): 0.0644 µM (active)
GI50 (MDA-N): 0.131 µM (active)
GI50 (NCI-H23): 0.175 µM (active)
GI50 (NCI-H460): 0.00686 µM (active)
GI50 (OVCAR-4): 0.231 µM (active)
GI50 (SF-539): 0.103 µM (active)
GI50 (SK-MEL-28): 0.378 µM (active)
GI50 (SK-MEL-5): 0.0966 µM (active)
GI50 (SNB-75): 0.139 µM (active)
GI50 (T47D): 0.179 µM (active)
GI50 (XF498): 0.0493 µM (active)

O=C(CC1=Nc2nnc(CCCCCCCc3nnc4n3C(=O)C(CC(=O)c3ccc5ccccc5c3)=N4)n2C1=O)c1ccc2ccccc2c1
GI50 (A549): > 100 µM (inactive)
GI50 (CCRF-CEM): > 100 µM (inactive)
GI50 (DLD-1): > 100 µM (inactive)
GI50 (HCT-15): > 100 µM
GI50 (HL-60): > 100 µM (inactive)
GI50 (HOP-18): > 100 µM (inactive)
GI50 (HOP-62): > 100 µM (inactive)
GI50 (KM-20L2): > 100 µM (inactive)
GI50 (LOX IMVI): > 100 µM (inactive)
GI50 (NCI-H23): > 100 µM (inactive)
GI50 (NCI-H460): > 100 µM (inactive)
GI50 (OVCAR-4): > 100 µM (inactive)
GI50 (SF-539): > 100 µM (inactive)
GI50 (SK-MEL-28): > 100 µM (inactive)
GI50 (SNB-75): > 100 µM (inactive)
GI50 (XF498): > 100 µM (inactive)

O=C1CC2C(=O)N(Cc3ccccc3)C1C(S(=O)(=O)c1ccccc1)C2S(=O)(=O)c1ccccc1 (centres undefined)
GI50 (A549): 19.1 µM (inactive)
GI50 (CCRF-CEM): 1.11 µM (active)
GI50 (DLD-1): 1.59 µM (inactive)
GI50 (HCT-15): 1.32 µM
GI50 (HL-60): 1.62 µM (inactive)
GI50 (HOP-18): 3.78 µM (inactive)
GI50 (HOP-62): 22.1 µM (inactive)
GI50 (KM-20L2): 2.4 µM (inactive)
GI50 (LOX IMVI): 1.68 µM (inactive)
GI50 (NCI-H23): 3.25 µM (inactive)
GI50 (NCI-H460): 17.7 µM (inactive)
GI50 (OVCAR-4): 2.08 µM (inactive)
GI50 (SF-539): 2.05 µM (inactive)
GI50 (SK-MEL-28): 1.9 µM (inactive)
GI50 (SK-MEL-5): 15.7 µM (inactive)
GI50 (SNB-75): 7.28 µM (inactive)
GI50 (XF498): 1.86 µM (inactive)

CN1CN(C2OC(CO)C(O)C2O)c2nc(N)[nH]c(=O)c21 (centres undefined)
GI50 (A549): > 100 µM (inactive)
GI50 (DLD-1): > 100 µM (inactive)
GI50 (HCT-15): > 100 µM
GI50 (HL-60): > 100 µM (inactive)
GI50 (HOP-18): > 100 µM (inactive)
GI50 (HOP-62): > 100 µM (inactive)
GI50 (KM-20L2): > 100 µM (inactive)
GI50 (NCI-H23): > 100 µM (inactive)
GI50 (NCI-H460): > 100 µM (inactive)
GI50 (OVCAR-4): > 100 µM (inactive)
GI50 (SF-539): > 100 µM (inactive)
GI50 (SK-MEL-5): > 100 µM (inactive)
GI50 (SNB-75): > 100 µM (inactive)
GI50 (XF498): > 100 µM (inactive)

COc1ccc(NC(=O)CC/C(CC(=O)c2ccco2)=N/NC(=O)C(N)=O)cc1
GI50 (A549): > 100 µM (inactive)
GI50 (CCRF-CEM): 63.5 µM (inactive)
GI50 (DLD-1): > 100 µM (inactive)
GI50 (HCT-15): > 100 µM
GI50 (HL-60): 36 µM (inactive)
GI50 (HOP-18): > 100 µM (inactive)
GI50 (HOP-62): > 100 µM (inactive)
GI50 (KM-20L2): > 100 µM (inactive)
GI50 (LOX IMVI): > 100 µM (inactive)
GI50 (NCI-H23): 38.3 µM (inactive)
GI50 (NCI-H460): > 100 µM (inactive)
GI50 (OVCAR-4): > 100 µM (inactive)
GI50 (SF-539): > 100 µM (inactive)
GI50 (SK-MEL-28): 91.2 µM (inactive)
GI50 (SK-MEL-5): 27.4 µM (inactive)
GI50 (SNB-75): 97.5 µM (inactive)
GI50 (XF498): 82.8 µM (inactive)

CCC(=O)NCC1(c2c[nH]c3ccccc23)SCCS1
GI50 (A549): > 100 µM (inactive)
GI50 (CCRF-CEM): > 100 µM (inactive)
GI50 (DLD-1): > 100 µM (inactive)
GI50 (HCT-15): > 100 µM
GI50 (HL-60): > 100 µM (inactive)
GI50 (HOP-18): > 100 µM (inactive)
GI50 (HOP-62): > 100 µM (inactive)
GI50 (KM-20L2): > 100 µM (inactive)
GI50 (LOX IMVI): > 100 µM (inactive)
GI50 (NCI-H23): > 100 µM (inactive)
GI50 (NCI-H460): > 100 µM (inactive)
GI50 (OVCAR-4): > 100 µM (inactive)
GI50 (SF-539): > 100 µM (inactive)
GI50 (SK-MEL-28): > 100 µM (inactive)
GI50 (SK-MEL-5): > 100 µM (inactive)
GI50 (SNB-75): > 100 µM (inactive)
GI50 (XF498): > 100 µM (inactive)

COC(=O)C1C2C=CC(C2)C1(C(=O)OC)[S+]([O-])CC12CCC(CC1O)C2(C)C (centres undefined)
GI50 (A549): > 100 µM (inactive)
GI50 (CCRF-CEM): > 100 µM (inactive)
GI50 (DLD-1): 60.8 µM (inactive)
GI50 (HCT-15): 19.2 µM
GI50 (HL-60): > 100 µM (inactive)
GI50 (HOP-18): > 100 µM (inactive)
GI50 (HOP-62): > 100 µM (inactive)
GI50 (KM-20L2): > 100 µM (inactive)
GI50 (LOX IMVI): 21.1 µM (inactive)
GI50 (NCI-H23): > 100 µM (inactive)
GI50 (NCI-H460): > 100 µM (inactive)
GI50 (OVCAR-4): > 100 µM (inactive)
GI50 (SF-539): > 100 µM (inactive)
GI50 (SK-MEL-28): > 100 µM (inactive)
GI50 (SK-MEL-5): > 100 µM (inactive)
GI50 (SNB-75): > 100 µM (inactive)
GI50 (XF498): > 100 µM (inactive)

O=C(Cc1csc(-c2nc(CC(=O)NNc3ccccc3)cs2)n1)NNc1ccccc1
GI50 (A549): > 100 µM (inactive)
GI50 (CCRF-CEM): 34.9 µM (inactive)
GI50 (DLD-1): 49 µM (inactive)
GI50 (HCT-15): 38.4 µM
GI50 (HL-60): 32 µM (inactive)
GI50 (HOP-18): > 100 µM (inactive)
GI50 (HOP-62): > 100 µM (inactive)
GI50 (KM-20L2): > 100 µM (inactive)
GI50 (LOX IMVI): 19.6 µM (inactive)
GI50 (NCI-H23): > 100 µM (inactive)
GI50 (NCI-H460): 23.5 µM (inactive)
GI50 (OVCAR-4): > 100 µM (inactive)
GI50 (SF-539): > 100 µM (inactive)
GI50 (SK-MEL-28): > 100 µM (inactive)
GI50 (SK-MEL-5): > 100 µM (inactive)
GI50 (SNB-75): > 100 µM (inactive)
GI50 (XF498): > 100 µM (inactive)

Reference: ChEMBL document CHEMBL1201862, “PubChem BioAssay data set” (2004)
